Measured values published in article PMC6348446 (Journal of Medicinal Chemistry, 2018).
Converted amounts (≈) assume the structure as drawn.

Experiments:
BRD7 = molecular target: T1, BRD7 (Homo sapiens, UniProt Q9NPI1); test: Western blot of BRD7 levels in RI-1 cells after compound treatment; type: cell-based; settings: for BRD7 degradation: 4 h
T1 construct: Western blot analysis of BRD9 and BRD7 levels after treatment of HeLa cells; endogenous in cells; host or cells: HeLa
T1 sequence (Q9NPI1 1-651): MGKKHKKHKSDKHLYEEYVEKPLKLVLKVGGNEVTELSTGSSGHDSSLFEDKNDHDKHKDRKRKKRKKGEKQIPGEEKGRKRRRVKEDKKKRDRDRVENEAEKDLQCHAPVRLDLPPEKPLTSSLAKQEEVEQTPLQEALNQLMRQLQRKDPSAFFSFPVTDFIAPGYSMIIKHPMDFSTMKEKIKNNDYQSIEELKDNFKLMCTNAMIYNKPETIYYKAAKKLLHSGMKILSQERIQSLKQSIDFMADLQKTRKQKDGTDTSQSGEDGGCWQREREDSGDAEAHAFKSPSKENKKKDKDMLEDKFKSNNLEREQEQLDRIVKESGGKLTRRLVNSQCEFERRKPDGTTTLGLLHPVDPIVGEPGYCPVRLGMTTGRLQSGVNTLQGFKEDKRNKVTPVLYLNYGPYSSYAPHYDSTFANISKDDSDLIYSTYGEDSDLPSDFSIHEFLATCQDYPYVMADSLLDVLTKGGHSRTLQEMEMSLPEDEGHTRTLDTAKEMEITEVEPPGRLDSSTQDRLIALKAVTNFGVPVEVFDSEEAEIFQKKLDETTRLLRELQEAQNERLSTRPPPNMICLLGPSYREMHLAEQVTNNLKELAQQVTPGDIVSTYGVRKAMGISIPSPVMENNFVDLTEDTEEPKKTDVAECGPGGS
Method: HeLa and Hek293 cells were seeded at either 0.3 × 10^6 or 0.5 × 10^6 cells per well in 6-well plate in 2 mL of medium. At 80% confluency, cells were treated with compounds at the desired concentration, with final DMSO concentration of 0.1% v/v. Cells were incubated at 37 °C and 5% of CO2 for the desired time before harvesting. For protein extraction from adherent cells, cells were washed twice with DPBS (Gibco) and lysed with RIPA buffer (Sigma-Aldrich), supplemented with cOmplete Mini EDTA-free protease inhibitor cocktail (Roche). Insoluble material was removed by centrifugation at 14 000 rpm for 15 min at 4 °C. Supernatant was collected and protein concentration was quantified by Bradford assay (Thermo Scientific no. 23200, mean of two replicates). For RI-1 cells, (1–1.5) × 10^6 cells/mL were seeded in 6-well plate in 2 mL of medium. The day after, cells were treated with compounds at the desired concentration, with final DMSO concentration of 0.1% v/v. Before harvesting, cells were incubated at 37 °C and 5% CO2 for the desired time. Cells were washed twice with DPBS (Gibco) and lysed with RIPA buffer (Sigma-Aldrich), supplemented with cOmplete Mini EDTA-free protease inhibitor cocktail (Roche). Lysates were sonicated (10 s) and centrifuged at 14 000 rpm for 20 min at 4 °C. Supernatant was collected, and protein concentration was quantified by Bradford assay (mean of two replicates). For EOL-1 and A-204 cell line, 20 000 cells were seeded in 300 μL per well in a 24-well plate and incubated at 37 °C overnight. Compounds were added from DMSO stock solution using a digital dispenser D300 (Tecan), normalizing for added DMSO, and cells were incubated at 37 °C for 18 h. Medium was removed, and cells were washed with PBS and lysed in 80 μL of lysis buffer (1% Triton, 350 mM KCl, 10 mM Tris, pH 7,4, phosphatase-protease inhibitor cocktail (Thermo Scientific no. 1861281), 10 mM DTT, Benzonase 0.5 μL/ml (Novagen no. 70746 10KU, 25 U/μL)) for 30 min on ice before insoluble debris was pelleted by centrifugation.
Cells were seeded in 6-well plates with 5 × 10^5 cells per well in 2 mL of complete medium to aim for 80% confluence on the day of treatment. At time zero, ML4924 was added at final concentration of 3 μM with 0.1% v/v of DMSO. DMSO was added to the remaining wells in order to match concentration of vehicle in all wells. […]
Proteins were resolved by SDS–PAGE on NuPage 4–12% Bis-Tris Midi Gel (Invitrogen) and transferred to Amersham Protran 0.45 NC nitrocellulose membrane (GE Healthcare) using wet transfer. […] ImageJ software was used for band quantification, and the last was reported as relative amount as ratio of each protein band relative to the lane’s loading control. […]

[1] = Aqueous kinetic solubility by laser nephelometry; type: physicochemical; settings: for solubility kinetic: MilliQ water with 2.5% DMSO
Method: The aqueous solubility of the test compounds was measured using laser nephelometry.
Compounds were subject to serial dilution from 10 mM to 0.5 mM in DMSO. An aliquot was then mixed with MilliQ water to obtain an aqueous dilution plate with a final concentration range of 250 – 12 µM, with a final DMSO concentration of 2.5%. Triplicate aliquots were transferred to a flat-bottomed polystyrene plate which was immediately read on the NEPHELOstar (BMG Lab Technologies). The amount of laser scatter caused by insoluble particulates (relative nephelometry units, RNU) was plotted against compound concentration using a segmental regression fit, with the point of inflection being quoted as the compounds

COc1cc(-c2cn(C)c(=O)c3cnccc23)cc(OC)c1CN1CCN(CCCCCOc2cc(-c3scnc3C)ccc2CNC(=O)[C@@H]2C[C@@H](O)CN2C(=O)[C@@H](NC(=O)C2(F)CC2)C(C)(C)C)CC1 [Compound 51, (2S,4R)-N-(2-((5-(4-(2,6-Dimethoxy-4-(2-methyl-1-oxo-1,2-dihydro-2,7-naphthyridin-4-yl)benzyl)piperazin-1-yl)pentyl)oxy)-4-(4-methylthiazol-5-yl)benzyl)-1-((S)-2-(1-fluorocyclopropane-1-carboxamido)-3,3-dimethylbutanoyl)-4-hydroxypyrrolidine-2-carboxamide]
decrease of BRD7 level (BRD7; 100 nM, 30 min): more than 50%
BRD7 degradation (BRD7; 100 nM): more than 90%
concentration window of maximal protein degradation of BRD7 (BRD7; 2 and 8 h): 0.1 to 1 µM
Aqueous Solubility (Kinetic) ([1]; 2.5% DMSO, listed as VZ185): ~100 µM
solubility kinetic [1]: 85 µM (≈ 84.6 µg/mL)

COc1cc(-c2cn(C)c(=O)c3cnccc23)cc(OC)c1CN1CCN(CCCCCOc2cc(-c3scnc3C)ccc2CNC(=O)[C@@H]2C[C@H](O)CN2C(=O)[C@@H](NC(=O)C2(F)CC2)C(C)(C)C)CC1 [cisVZ185]
BRD7 degradation (BRD7; 100 nM): no degradation
solubility kinetic [1]: 79 µM (≈ 78.6 µg/mL)
